In publication PMC6270165, “Synthesis and Biological Evaluation of 3-Benzisoxazolyl-4-indolylmaleimides as Potent, Selective Inhibitors of Glycogen Synthase Kinase-3β” (Molecules, 2013):

How the values were obtained:
GSK-3β = target: T1, GSK-3β (Homo sapiens, UniProt P49841); assay: GSK-3β kinase assay (Z'-LYTE Kinase Assay kit Ser/Thr 9 Peptide); format: biochemical; conditions: 50 nM enzyme, 30 μM ATP, 2 μM substrate peptide; triplicate; mean ± SE; read-out: GSK-3β inhibitory activity IC50 (nM) ± SE
T1 construct: GST (N, cleaved yes); made in house; host or cells: Escherichia coli BL21-Codon Plus (DE3)
T1 sequence (P49841 whole entry): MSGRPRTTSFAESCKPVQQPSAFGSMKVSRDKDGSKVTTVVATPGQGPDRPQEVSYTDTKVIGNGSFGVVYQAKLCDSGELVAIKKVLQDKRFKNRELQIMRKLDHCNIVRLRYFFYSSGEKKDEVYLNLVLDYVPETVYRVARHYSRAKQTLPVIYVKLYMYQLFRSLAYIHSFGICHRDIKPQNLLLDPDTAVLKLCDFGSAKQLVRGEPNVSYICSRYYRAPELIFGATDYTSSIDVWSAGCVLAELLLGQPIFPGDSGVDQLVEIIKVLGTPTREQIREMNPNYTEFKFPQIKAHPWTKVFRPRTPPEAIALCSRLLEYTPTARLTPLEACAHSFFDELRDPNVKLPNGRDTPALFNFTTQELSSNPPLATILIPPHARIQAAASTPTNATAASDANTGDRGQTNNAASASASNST
Method: GSK3β belongs to CMGC family. Here, the other family members were used to evaluate the selectivity of GSK3β inhibitors, including PKC-epsilon (AGC family), JAK2 (TK family), Braf (TKL family), DRAK2 (CAMK family) and IKKβ (other family).The recombinant GST-GSK-3βprotein was expressed in Escherichia coli strain BL21-Codon Plus (DE3), purified by GSTrap affinity chromatography, and cleaved by thrombin. The GSK-3β kinase assay was carried out with the Z´-LYTETM Kinase Assay kit Ser/Thr 9 Peptide substrate (Invitrogen, Grand, NY, USA) in 10 μL reaction volume containing 50 nM enzyme, 30 μM ATP and 2 μM substrate peptide. Drak2 Proteins were presented by professor Jiang-ping Wu (Laboratory of Immunology, Research Centre, CHUM, Notre Dame Hospital, Pavilion DeSève). The Drak2 kinase reaction was performed in a final assay volume of 3.4 μL using the ADP-GLO Kinase Assay Kit (Promega, Madison, WI, USA), according the ADP-GLO protocol and read on an EnVision plate reader. The recombinant PKC-epsilon, IKKβ, and JAK2 with N-terminal His-tag were expressed using baculovirus expression system and purified with Ni-Beads. BRAF protein was from Carna Biosciences, Inc. (Kobe Port Island, Japan). And the related kinase reactions were performed in a final assay volume of 10 μL using the related HTRF Assay Kit (Cisbio, Codolet, France). Reactions were according the HTRF protocol and read on an EnVision plate reader. All reactions were carried out in triplicate. […] Data were expressed as mean ± SE.

[1] = tested on: Tau phosphorylation at Ser 396 in SH-SY5Y cells; assay: Aβ25-35-induced Tau phosphorylation (Ser396) in SH-SY5Y cells, Western blotting; format: cell-based, human; conditions: 100 nM, inhibitors 1 hour, then Aβ25–35 6 hours, Western blot
Method: It has been implicated that GSK-3β is involved in multiple cellular processes, and its ability to hyperphosphorylate Tau protein and induce neurofibrillary tangle was intensively studied. Therefore, the cell-based assay examining Tau phosphorylation at Serine 396 represents a direct functional assay to measure the cellular activity of GSK-3β inhibitors. Compounds 7c, 7f, 7j–l and 7o–q were tested for the ability to reduce Tau phosphorylation at Ser 396 in human neuroblastoma SH-SY5Y cells. LiCl, a well-known inhibitor of GSK-3β [24], was used as a positive control in this assay. […] The Aβ-induced Tau hyperphosphorylation results in neurofibrillary tangle formation, which plays an important role in Alzheimer’s disease. […] In addition, the predictions about these compounds’ brain permeability were performed using ADME module with Discovery Studio 2.1 software package.
SH-SY5Y human neuroblastoma cells were obtained from the American Type Culture Collection (ATCC, Manassas, VA, USA). Cells were cultured in 1:1 DMEM:Ham's F12 containing 10% (v/v) fetal bovine serum (HyClone, Logan, UT, USA), 1% penicillin, and 1% streptomycin at a humidified atmosphere with 5% CO2. The medium was changed every 2 days. […] Antigen-antibody complexes were detected by the ECL Kit.

IC50 (GSK-3β): 127 ± 3.2 nM
SMILES: O=C1NC(=O)C(c2cn(CCCN3CCOCC3)c3cc(F)ccc23)=C1c1noc2ccccc12 [7f, 3-(Benzo[d]isoxazol-3-yl)-4-(6-fluoro-1-(3-morpholinopropyl)-1H-indol-3-yl)-1H-pyrrole-2,5-dione]
Effect on Aβ25-35-induced Tau phosphorylation at Ser 396 [1]: obviously reduce
